From ChEMBL document CHEMBL3588760, “Inhibitors of melanogenesis in B16 melanoma 4A5 cells from flower buds of Lawsonia inermis (Henna)” (Bioorg Med Chem Lett, 2015)

How the values were obtained:
[1] = Inhibition of melanogenesis in theophylline-stimulated mouse B16-4A5 cells at 1 uM after 72 hrs by microplate reader analysis relative to control; type: functional; conditions: B16-4A5, 72 h
[2] = Cytotoxicity against mouse B16-4A5 cells assessed as cell viability at 1 uM after 70 hrs by WST-8 assay relative to control; type: cell-based; conditions: read-out: Activity
[3] = target: Plasminogen (Homo sapiens) (UniProt P00747); assay: Inhibition of plasmin (unknown origin) at 100 uM after 18 hrs by arianor mahogany dye-based fibrin plate assay relative to control
[4] = Downregulation of TRP-1 mRNA expression in theophylline-stimulated mouse B16-4A5 cells assessed as ratio of TRP-1 mRNA to beta-actin mRNA level at 30 uM after 72 hrs by qPCR analysis; type: functional, cell-based
[5] = Inhibition of melanogenesis in theophylline-stimulated mouse B16-4A5 cells at 100 uM after 72 hrs by microplate reader analysis relative to control; type: functional; conditions: B16-4A5, 72 h
[6] = Inhibition of melanogenesis in theophylline-stimulated mouse B16-4A5 cells at 10 uM after 72 hrs by microplate reader analysis relative to control; type: functional; conditions: B16-4A5, 72 h
[7] = Downregulation of tyrosinase mRNA expression in theophylline-stimulated mouse B16-4A5 cells assessed as ratio of tyrosinase mRNA to beta-actin mRNA level at 3 uM after 72 hrs by qPCR analysis; type: functional, cell-based
[8] = target: T1, Tyrosinase (Agaricus bisporus) (UniProt O42713); assay: Inhibition of mushroom tyrosinase using L-DOPA as substrate assessed as dopaquinone production at 100 uM after 5 mins by microplate reader analysis relative to control
T1 sequence (whole entry): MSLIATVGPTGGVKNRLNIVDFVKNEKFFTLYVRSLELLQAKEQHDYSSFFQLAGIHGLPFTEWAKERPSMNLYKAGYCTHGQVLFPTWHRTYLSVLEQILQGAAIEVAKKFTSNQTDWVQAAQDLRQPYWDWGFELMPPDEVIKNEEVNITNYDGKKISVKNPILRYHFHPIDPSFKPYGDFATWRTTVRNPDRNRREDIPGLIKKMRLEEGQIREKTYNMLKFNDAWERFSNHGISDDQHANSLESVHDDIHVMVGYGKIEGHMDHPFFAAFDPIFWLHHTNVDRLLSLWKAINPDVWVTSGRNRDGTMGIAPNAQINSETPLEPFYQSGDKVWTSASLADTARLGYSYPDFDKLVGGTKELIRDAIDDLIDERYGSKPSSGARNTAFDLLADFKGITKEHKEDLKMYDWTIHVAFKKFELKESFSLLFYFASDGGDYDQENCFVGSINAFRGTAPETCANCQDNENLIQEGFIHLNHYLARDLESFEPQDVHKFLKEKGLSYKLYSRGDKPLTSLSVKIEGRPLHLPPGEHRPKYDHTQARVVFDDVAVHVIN

[9] = Downregulation of TRP-2 mRNA expression in theophylline-stimulated mouse B16-4A5 cells assessed as ratio of TRP-2 mRNA to beta-actin mRNA level at 3 uM after 72 hrs by qPCR analysis; type: functional, cell-based
[10] = Inhibition of melanogenesis in theophylline-stimulated mouse B16-4A5 cells at 3 uM after 72 hrs by microplate reader analysis relative to control; type: functional; conditions: B16-4A5, 72 h
[11] = Cytotoxicity against mouse B16-4A5 cells assessed as cell viability at 30 uM after 70 hrs by WST-8 assay relative to control; type: cell-based; conditions: read-out: Activity
[12] = Downregulation of tyrosinase mRNA expression in theophylline-stimulated mouse B16-4A5 cells assessed as ratio of tyrosinase mRNA to beta-actin mRNA level at 30 uM after 72 hrs by qPCR analysis; type: functional, cell-based
[13] = Cytotoxicity against mouse B16-4A5 cells assessed as cell viability at 3 uM after 70 hrs by WST-8 assay relative to control; type: cell-based; conditions: read-out: Activity
[14] = Inhibition of melanogenesis in theophylline-stimulated mouse B16-4A5 cells at 30 uM after 72 hrs by microplate reader analysis relative to control; type: functional; conditions: B16-4A5, 72 h
[15] = Downregulation of TRP-2 mRNA expression in theophylline-stimulated mouse B16-4A5 cells assessed as ratio of TRP-2 mRNA to beta-actin mRNA level at 10 uM after 72 hrs by qPCR analysis; type: functional, cell-based
[16] = Cytotoxicity against mouse B16-4A5 cells assessed as cell viability at 100 uM after 70 hrs by WST-8 assay relative to control; type: cell-based; conditions: read-out: Activity
[17] = Downregulation of TRP-1 mRNA expression in theophylline-stimulated mouse B16-4A5 cells assessed as ratio of TRP-1 mRNA to beta-actin mRNA level at 3 uM after 72 hrs by qPCR analysis; type: functional, cell-based
[18] = Cytotoxicity against mouse B16-4A5 cells assessed as cell viability at 10 uM after 70 hrs by WST-8 assay relative to control; type: cell-based; conditions: read-out: Activity
[19] = Downregulation of tyrosinase mRNA expression in theophylline-stimulated mouse B16-4A5 cells assessed as ratio of tyrosinase mRNA to beta-actin mRNA level at 10 uM after 72 hrs by qPCR analysis; type: functional, cell-based
[20] = Downregulation of TRP-2 mRNA expression in theophylline-stimulated mouse B16-4A5 cells assessed as ratio of TRP-2 mRNA to beta-actin mRNA level at 30 uM after 72 hrs by qPCR analysis; type: functional, cell-based
[21] = Downregulation of TRP-1 mRNA expression in theophylline-stimulated mouse B16-4A5 cells assessed as ratio of TRP-1 mRNA to beta-actin mRNA level at 10 uM after 72 hrs by qPCR analysis; type: functional, cell-based

Plasminogen (Homo sapiens), sequence (P00747 97-580 limits assumed): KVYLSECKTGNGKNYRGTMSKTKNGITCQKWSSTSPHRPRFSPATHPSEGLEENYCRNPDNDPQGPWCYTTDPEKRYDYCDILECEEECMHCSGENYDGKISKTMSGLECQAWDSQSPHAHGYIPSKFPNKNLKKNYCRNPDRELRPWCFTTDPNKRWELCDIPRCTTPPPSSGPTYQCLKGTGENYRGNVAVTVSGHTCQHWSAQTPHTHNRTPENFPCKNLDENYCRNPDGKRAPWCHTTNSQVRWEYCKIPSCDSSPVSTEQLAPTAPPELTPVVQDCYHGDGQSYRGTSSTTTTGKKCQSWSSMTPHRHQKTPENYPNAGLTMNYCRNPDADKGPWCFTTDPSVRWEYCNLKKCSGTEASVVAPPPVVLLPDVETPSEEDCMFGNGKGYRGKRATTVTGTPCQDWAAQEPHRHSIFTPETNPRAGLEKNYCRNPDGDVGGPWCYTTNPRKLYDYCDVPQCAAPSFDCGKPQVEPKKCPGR
Plasminogen (Homo sapiens), sequence (P00747 581-810 limits assumed): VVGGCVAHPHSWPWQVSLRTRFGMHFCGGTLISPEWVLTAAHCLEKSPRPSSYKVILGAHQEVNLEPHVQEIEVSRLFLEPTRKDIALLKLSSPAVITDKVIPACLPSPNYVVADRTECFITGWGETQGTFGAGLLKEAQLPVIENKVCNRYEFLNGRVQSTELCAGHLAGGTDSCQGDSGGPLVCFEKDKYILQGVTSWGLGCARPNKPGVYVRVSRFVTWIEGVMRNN

| Compound | inhibition at 1 µM [1] [%] | viability at 70 h, 1 µM [2] [%] | inhibition [3] [%] | Ratio [4] | inhibition at 100 µM [5] [%] | inhibition at 10 µM [6] [%] | Ratio [7] | inhibition [8] [%] | Ratio [9] | inhibition at 3 µM [10] [%] | viability at 70 h, 30 µM [11] [%] | Ratio [12] | viability at 70 h, 3 µM [13] [%] | inhibition at 30 µM [14] [%] | Ratio [15] | viability at 70 h, 100 µM [16] [%] | Ratio [17] | viability at 70 h, 10 µM [18] [%] | Ratio [19] | Ratio [20] | other results |
| --- | --- | --- | --- | --- | --- | --- | --- | --- | --- | --- | --- | --- | --- | --- | --- | --- | --- | --- | --- | --- | --- |
| O=C1CC(c2ccc(O)c(O)c2)Oc2cc(O)cc(O)c21 (racemic) | 5.8 | 108 | 20.7 | 0.29 | 61.1 | 37.2 | 0.97 | 3.1 | 0.67 | 10.3 | 72.6 | 0.38 | 101 | 42.5 | 0.55 | 55.9 | 0.94 | 88.2 | 0.66 | 0.43 | Ratio [21]: 0.36 |
| O=c1cc(-c2ccc(O)c(O)c2)oc2cc(O)cc(O)c12 [LUTEOLIN] | 6.2 | 103 | 28.7 | 0.83 | – | 38.1 | 0.72 | 33.5 | 0.9 | 13.5 | 63.8 | 0.46 | 102 | 76.7 | 0.89 | 12.6 | 0.93 | 77.2 | 0.74 | 0.82 | Ratio [21]: 0.86 |
| O=c1cc(-c2ccc(O[C@@H]3O[C@H](CO)[C@@H](O)[C@H](O)[C@H]3O)c(O)c2)oc2cc(O)cc(O)c12 | 27.7 | 99.6 | 41.7 | – | – | 38.6 | – | 4.4 | – | 31 | – | – | 105 | – | – | – | – | 114 | – | – | – |
| COc1ccc(-c2cc(=O)c3c(O)cc(O)cc3o2)cc1O[C@@H]1O[C@H](CO)[C@@H](O)[C@H](O)[C@H]1O | 6.3 | 92.8 | 28.5 | 0.77 | 61.5 | 40.6 | 1.22 | – | 1.08 | 18 | 79.4 | 1.09 | 91.4 | 44.1 | 0.92 | 66.2 | 0.85 | 94.5 | 0.99 | 0.93 | Ratio [21]: 1.08 |
| COc1ccc(-c2cc(=O)c3c(O)cc(O[C@@H]4O[C@H](CO)[C@@H](O)[C@H](O)[C@H]4O)cc3o2)cc1 [TILIANINE] | -5.9 | 93.2 | -8.1 | – | – | -36.6 | – | 5.3 | – | -1.1 | – | – | 98.3 | – | – | – | – | 74.2 | – | – | – |
| O=c1c(O)c(-c2ccc(O)c(O)c2)oc2cc(O)cc(O)c12 [QUERCETIN] | 13.9 | 104 | 30.2 | 0.7 | – | 34.3 | 0.56 | – | 0.81 | 17.1 | 89.1 | 0.45 | 103 | 72.5 | 0.72 | – | 0.68 | 106 | 0.55 | 0.59 | Ratio [21]: 0.68 |
| COc1ccc(-c2oc3cc(O)cc(O)c3c(=O)c2O[C@@H]2O[C@H](CO)[C@@H](O)[C@H](O)[C@H]2O)cc1O | 7.7 | 93.4 | 33.1 | – | – | -10.7 | – | – | – | 3.3 | – | – | 91.3 | – | – | – | – | 86.2 | – | – | – |
| NC[C@H]1CC[C@H](C(=O)O)CC1 | – | – | 9.5 | – | – | – | – | – | – | – | – | – | – | – | – | – | – | – | – | – | – |
| O=c1c(O[C@@H]2O[C@H](CO)[C@@H](O)[C@H](O)[C@H]2O)c(-c2ccc(O)c(O)c2)oc2cc(O)cc(O)c12 [ISOQUERCETIN] | 16.7 | 99.8 | -2.5 | – | 20.7 | 20.7 | – | 5 | – | 33.2 | 87 | – | 100 | 23.2 | – | 76.3 | – | 95.4 | – | – | – |
| O=c1cc(-c2ccc(O)c(O)c2)oc2cc(O[C@@H]3O[C@H](CO)[C@@H](O)[C@H](O)[C@H]3O)cc(O)c12 [GALUTEOLIN] | 14.8 | 101 | 61 | – | 15.1 | 45.1 | – | – | – | 14 | 85.5 | – | 104 | 11 | – | 57.6 | – | 103 | – | – | – |
| O=c1c(O)c(-c2ccc(O[C@@H]3O[C@H](CO)[C@@H](O)[C@H](O)[C@H]3O)c(O)c2)oc2cc(O)cc(O)c12 [SPIRAEOSIDE] | 22.4 | 105 | 51 | – | 21.4 | 31.4 | – | 70.7 | – | 24.4 | 95.8 | – | 107 | 34.7 | – | 74 | – | 106 | – | – | – |
